Results on eight compounds are retold here after ChEMBL document CHEMBL1201862, “PubChem BioAssay data set” (2004).

Some test systems named below: 786-0; A549; BT-549; CCRF-CEM; HCT-116; HT-29; Hs-578T; KM12; Malme-3M; OVCAR-3; OVCAR-5; PC-3; RPMI-8226; RXF 393; SK-MEL-5; SR; UACC-257; UACC-62.
What all share (assay): NCI tumour cell line growth inhibition, 48 h

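Compound exposure: 48 hours, 5 concentrations, 96-well plates. GI50 is the concentration that inhibits growth by half.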 Calls of active or inactive are those of the source. Cut-off read from the data, not from the text of the source: active = GI50 up to about 1.1 µM and inactive = higher.

Take `COC(=O)c1cc2c(n1S(=O)(=O)c1ccc(C)cc1)C(=O)C(=O)c1[nH]cc(C(=O)OCc3ccccc3)c1-2`: the GI50 is 0.23 µM (active) with 786-0; 0.183 µM (active) in the test with A549; 0.183 µM (active) in the test on BT-549; 0.0873 µM (active) in the test on CCRF-CEM; 0.0718 µM (active) in the test with HCT-116; 0.273 µM (active) in the test with HT-29. Also, the GI50 in the test on Hs-578T was 0.43 µM (active); in the test on KM12 it was 0.231 µM (active); with Malme-3M it was 0.0321 µM (active); with OVCAR-3 it was < 0.0141 µM (active); with OVCAR-5, 0.575 µM (active); in the test with PC-3, 0.264 µM (active). For the same compound, the GI50 was 0.0883 µM (active) in the test with RPMI-8226; 0.0973 µM (active) with RXF 393; 0.0237 µM (active) in the test on SK-MEL-5; 0.0906 µM (active) in the test with SR; 0.0322 µM (active) in the test with UACC-257; 0.0555 µM (active) with UACC-62.

As for `COC(=O)c1ccccc1C1CN=NC12Cc1c(ccc3c1CCC3)C2=O` (centres undefined), the GI50 in the test with 786-0 is > 100 µM (inactive); in the test with A549, > 100 µM (inactive); in the test on BT-549 it was 92.7 µM (inactive); in the test with CCRF-CEM, 49.5 µM (inactive); in the test on HCT-116, 43.2 µM (inactive); in the test with HT-29, 43.5 µM (inactive). Also, the GI50 with Hs-578T is 71.8 µM (inactive); with KM12 it was 38.4 µM (inactive); in the test with Malme-3M, > 100 µM (inactive); with OVCAR-3, 96.2 µM (inactive); with OVCAR-5 it was 84.3 µM (inactive); in the test on PC-3 it was 43.8 µM (inactive). The GI50 with RPMI-8226 is 28.8 µM (inactive); in the test with RXF 393 it was 48.6 µM (inactive); in the test on SK-MEL-5, 25.4 µM (inactive); in the test with SR it was 46.2 µM (inactive); with UACC-257 it was 15.7 µM (inactive); in the test on UACC-62, 55.1 µM (inactive).

Regarding `COc1cc2cc(C(=O)N3CC(CCl)c4ccc([N+](C)(C)Cc5ccccc5[N+](=O)[O-])cc43)[nH]c2c(OC)c1OC` (centres undefined), the GI50 is 1.53 µM (inactive) in the test on 786-0; 0.314 µM (active) in the test on A549; 1.95 µM (inactive) with BT-549; 0.966 µM (active) with CCRF-CEM; 1.66 µM (inactive) in the test with HCT-116; 0.962 µM (active) with HT-29. The GI50 in the test with Hs-578T is 2.4 µM (inactive); in the test with KM12, 2.24 µM (inactive); with Malme-3M it was 1.73 µM (inactive); in the test on OVCAR-3 it was 2.94 µM (inactive); in the test with OVCAR-5, 2.66 µM (inactive); in the test with PC-3, 1.68 µM (inactive). Moreover, the GI50 with RPMI-8226 is 1.3 µM (inactive); with RXF 393 it was 0.652 µM (active); in the test on SK-MEL-5 it was 0.875 µM (active); with SR, 0.213 µM (active); in the test on UACC-257, 1.66 µM (inactive); in the test with UACC-62, 1.01 µM (active).

For the compound `COc1ccc2nc3ccc(OC)cc3c([S+]([O-])Cc3ccc([N+](=O)[O-])cc3)c2c1` (centres undefined), the GI50 is 2.1 µM (inactive) with 786-0; 25.8 µM (inactive) with A549; 18.7 µM (inactive) in the test on BT-549; 2.11 µM (inactive) in the test with CCRF-CEM; 1.69 µM (inactive) in the test with HCT-116; 2.58 µM (inactive) in the test with HT-29. In addition, the GI50 with Hs-578T was 8.87 µM (inactive); with KM12 it was 18.4 µM (inactive); in the test with Malme-3M, 2.37 µM (inactive); in the test with OVCAR-3 it was 5.47 µM (inactive); in the test with OVCAR-5, 12.9 µM (inactive); in the test with PC-3 it was 14.5 µM (inactive). Further, the GI50 in the test on RPMI-8226 was 2.61 µM (inactive); with RXF 393, 5.04 µM (inactive); in the test with SK-MEL-5 it was 16.7 µM (inactive); in the test on SR, 8.18 µM (inactive); in the test on UACC-257, 3.9 µM (inactive); in the test with UACC-62, 15.2 µM (inactive).

`CC1CCCC(C(O)CC2CC(=O)NC(=O)C2)C1O` (centres undefined): the GI50 in the test with 786-0, in the test on A549, in the test with BT-549, in the test on CCRF-CEM, with HCT-116 and in the test with HT-29 was > 100 µM (inactive) throughout. Moreover, the GI50 in the test on Hs-578T, with KM12, in the test with Malme-3M, in the test on OVCAR-3, in the test on OVCAR-5 and with PC-3 was > 100 µM (inactive) throughout. In addition, the GI50 with RPMI-8226, in the test with RXF 393, with SK-MEL-5, in the test with SR, in the test on UACC-257 and with UACC-62 was > 100 µM (inactive) in each case.

As for `COC(=O)C(/C(=N/N)C(=O)Nc1ccc(C)c(C)c1)c1nc2ccc(Cl)cc2nc1O` (centres undefined), the GI50 with 786-0, with A549, in the test with BT-549, in the test with CCRF-CEM, with HCT-116 and in the test on HT-29 was > 100 µM (inactive) throughout. Also, the GI50 with Hs-578T, in the test on KM12, in the test on Malme-3M, with OVCAR-3, in the test with OVCAR-5 and in the test on PC-3 was > 100 µM (inactive) throughout. Also, the GI50 in the test on RPMI-8226, with RXF 393, in the test with SK-MEL-5, in the test on SR, in the test on UACC-257 and with UACC-62 was > 100 µM (inactive) throughout.

Turning to `O=c1[nH]cnc2c(C3OC(CO)C(O)C3O)c[nH]c12` (centres undefined), the GI50 in the test with 786-0, in the test on A549, in the test with BT-549, with CCRF-CEM, with HCT-116 and with HT-29 was > 100 µM (inactive) each time. The GI50 in the test with Hs-578T, in the test with KM12, with Malme-3M, in the test with OVCAR-3, in the test on OVCAR-5 and in the test on PC-3 was > 100 µM (inactive) each time. The GI50 with RPMI-8226, in the test with RXF 393, in the test on SK-MEL-5, in the test on SR, with UACC-257 and in the test on UACC-62 was > 100 µM (inactive) throughout.

For the compound `[O-][n+]1ccc(NO)c2ccccc21`, the GI50 is 2.05 µM (inactive) in the test with 786-0; 1.6 µM (inactive) in the test on A549; 0.689 µM (active) in the test with BT-549; 0.492 µM (active) in the test with CCRF-CEM; 2.03 µM (inactive) in the test with HCT-116; 1.19 µM (inactive) in the test with HT-29. Also, the GI50 in the test with Hs-578T was 2.09 µM (inactive); in the test on KM12, 0.984 µM (active); in the test with Malme-3M, 6.5 µM (inactive); with OVCAR-3 it was 2.3 µM (inactive); in the test on OVCAR-5 it was 3.73 µM (inactive); with PC-3, 1.51 µM (inactive). Besides, the GI50 in the test on RPMI-8226 was 0.297 µM (active); in the test with RXF 393, 0.592 µM (active); in the test with SK-MEL-5 it was 1.25 µM (inactive); with SR, 0.106 µM (active); with UACC-257 it was 7.36 µM (inactive); in the test on UACC-62 it was 1.22 µM (inactive).
